The test system of series [1] is mnb-overexpressing Drosophila. The experiment in a line: Embryonic neurological phenotype with pan-neuronal mnb overexpression (elav::synGFP). In kind it is in vivo. The source says: (§1) The expression of human Tau in Drosophila retinal tissue (GMR>Tau) produced a small rough eye phenotype (GMR>Tau in Fig. 6A and B), as described previously ([Jackson et al., 2002]). […] Pan-neuronal mnb overexpression (elav::synGFP>mnb) caused severe neurogenic defects in both the central and peripheral nervous system during embryogenesis [elav::synGFP>mnb (DMSO) in Fig. 6C]. […] Moreover, the viability of adult flies with the neuronal overexpression of mnb was examined. Pan-neuronal overexpression of mnb caused high rates of mortality in adult flies (∼70%, Fig. 6D).
(§2) Fig. 6. CX-4945 rescues neurological and phenotypic defects in an mnb-overexpressing Drosophila model. (A) The eyes of adult flies overexpressing mnb and/or human Tau under the control of the eye-specific GMR-Gal4 driver, and of control flies bearing only GMR-Gal4. Overexpression of mnb aggravated the eye abnormality induced by Tau overexpression. […] White dashed lines outline the eye contour. (B) The retinal surface areas were measured on multiple samples (n>10) from each genotype, and average eye sizes were presented as normalized percentages of the DMSO-treated GMR-Gal4 control. (C) The brain cortex, primary neuronal cell clusters and axon bundle, as visualized with GFP (green) using UAS-Synaptobrevin-GFP driven by elav-Gal4 at the late embryonic stage 18. […]

Series [2] deals with mnb-overexpressing Drosophila. Nature of the series: Adult lethality with pan-neuronal mnb overexpression. The format is in vivo, Drosophila melanogaster. The following applies: parent flies fed 100 nM, n=100 per group.
Description: as §1, §2

Structures are written as SMILES.

In the case of `O=C(O)c1ccc2c(c1)nc(Nc1cccc(Cl)c1)c1ccncc12` [CX-4945], in series [1] (100 nM, elav::synGFP>control), the “effect on control flies lacking mnb overexpression” value was “little noticeable effect”. The “neurogenic defects of mnb-overexpressing embryos” value in series [1] (parent flies fed 100 nM, elav::synGFP>mnb) is “restored these neurogenic defects”. The “reduction of mortality of the progeny” value in series [2] is on record as “more than 70%”.

(Values after article PMC5007978, “A chemical with proven clinical safety rescues Down-syndrome-related phenotypes in through DYRK1A inhibition” (Disease Models & Mechanisms, 2016).)
